18 compounds from patent publication US12054487B2, “Muscarinic acetylcholine M1 receptor antagonists” (Contineum Therapeutics, Inc., priority 2018, dated 2024) can be followed below.

What all share (format): cell-based
Assay [1] has as its target T1, M2 (Homo sapiens, UniProt P08172).
T1 sequence (P08172 1-466): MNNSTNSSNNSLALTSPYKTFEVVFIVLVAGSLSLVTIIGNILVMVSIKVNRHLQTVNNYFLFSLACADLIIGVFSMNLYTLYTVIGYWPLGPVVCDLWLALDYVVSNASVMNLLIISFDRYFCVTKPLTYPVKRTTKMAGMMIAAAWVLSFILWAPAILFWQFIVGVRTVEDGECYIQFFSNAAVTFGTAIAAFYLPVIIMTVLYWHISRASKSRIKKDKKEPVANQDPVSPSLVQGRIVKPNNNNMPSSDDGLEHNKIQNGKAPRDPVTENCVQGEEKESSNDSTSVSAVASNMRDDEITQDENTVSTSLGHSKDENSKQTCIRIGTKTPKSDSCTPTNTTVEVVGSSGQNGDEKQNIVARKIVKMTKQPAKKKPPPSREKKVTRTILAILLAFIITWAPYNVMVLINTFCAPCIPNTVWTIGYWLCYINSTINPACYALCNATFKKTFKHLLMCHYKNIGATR
Nature of the assay: In vitro functional assay of muscarinic acetylcholine receptor activity, M2. Conditions: antagonist activity; M2 method not separately described. The procedure:
[The procedure below names another target; the source lists this target under the same test.] (§1) CHO-K1 cells stably expressing human M1 receptor with Aequorin (Perkin Elmer) were grown in F12 media, 10% FBS with 0.4 mg/mL geneticin and […]. Cells were grown to confluence and frozen down to be assayed at a later date. On the day of the experiment cells were thawed in a 37° C. water bath, resuspended in DMEM/HAM's F12 with HEPES (Invitrogen)+0.1% protease-free BSA (assay buffer), and spun down to remove freezing media. After centrifugation, supernatant was removed and 12 mL of assay buffer was added. Coelenterazine h (Promega) was added to the cells at a final concentration of 5 uM and incubated for 4 hours at room temperature in the dark. Compound master plate-96 deep well (Corning) were formatted in a 8-point DRC in assay buffer with 0.2% DMSO at a starting concentration of 60 uM (2×). After 4 hours of incubation, cells were plated at a concentration of 5×10^5 cells/well in 96 well white-walled, tissue culture-treated, clear-bottom plates (VWR). Compounds were added to the daughter plate, and cells plus compound were incubated at room temperature for 30 minutes in the dark.
(§2) Calcium flux was measured using the FlexStation 3 (Molecular Devices). To measure the antagonist dose-response, the EC80 of Acetylcholine was injected to the daughter plate using the automated compound transfer function of the Flex Station, and the increase in luminescence was measured over time. Antagonist activity was analyzed as a concentration dependent decrease in the EC80 acetylcholine response. Dose response curves were generated using Prism (GraphPad Software). The IC50 of the compounds was calculated from the dose response curve.

Assay [2] deals with T2, human M1 receptor (Homo sapiens, UniProt P11229).
T2 construct: host or cells: CHO-K1
T2 sequence (P11229 1-460): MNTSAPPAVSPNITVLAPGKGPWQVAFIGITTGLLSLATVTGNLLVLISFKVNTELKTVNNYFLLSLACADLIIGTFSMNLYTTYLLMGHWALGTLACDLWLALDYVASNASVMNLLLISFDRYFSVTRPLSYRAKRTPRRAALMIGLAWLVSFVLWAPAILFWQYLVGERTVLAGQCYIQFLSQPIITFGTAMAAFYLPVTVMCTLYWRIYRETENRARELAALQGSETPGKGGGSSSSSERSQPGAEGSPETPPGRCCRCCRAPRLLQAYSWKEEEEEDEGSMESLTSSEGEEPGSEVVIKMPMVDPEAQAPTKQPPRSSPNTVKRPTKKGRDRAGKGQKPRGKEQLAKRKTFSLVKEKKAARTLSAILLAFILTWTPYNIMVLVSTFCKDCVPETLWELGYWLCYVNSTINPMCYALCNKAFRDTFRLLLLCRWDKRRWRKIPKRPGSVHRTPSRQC
The assay is described as follows: In vitro functional assay of muscarinic acetylcholine receptor activity (aequorin calcium flux, antagonist mode vs EC80 acetylcholine), M1. Conditions: CHO-K1 cells stably expressing human M1 receptor with Aequorin; decrease in EC80 acetylcholine response. The procedure:
as §1, §2

The target of assay [3] is M3 (Homo sapiens, UniProt P20309). Nature of the assay: In vitro functional assay of muscarinic acetylcholine receptor activity, M3. Conditions: antagonist activity; M3 method not separately described. The procedure:
[The procedure below names another target; the source lists this target under the same test.] as §1, §2

The structures appear in SMILES notation.

Sequence of M3 (P20309 whole entry): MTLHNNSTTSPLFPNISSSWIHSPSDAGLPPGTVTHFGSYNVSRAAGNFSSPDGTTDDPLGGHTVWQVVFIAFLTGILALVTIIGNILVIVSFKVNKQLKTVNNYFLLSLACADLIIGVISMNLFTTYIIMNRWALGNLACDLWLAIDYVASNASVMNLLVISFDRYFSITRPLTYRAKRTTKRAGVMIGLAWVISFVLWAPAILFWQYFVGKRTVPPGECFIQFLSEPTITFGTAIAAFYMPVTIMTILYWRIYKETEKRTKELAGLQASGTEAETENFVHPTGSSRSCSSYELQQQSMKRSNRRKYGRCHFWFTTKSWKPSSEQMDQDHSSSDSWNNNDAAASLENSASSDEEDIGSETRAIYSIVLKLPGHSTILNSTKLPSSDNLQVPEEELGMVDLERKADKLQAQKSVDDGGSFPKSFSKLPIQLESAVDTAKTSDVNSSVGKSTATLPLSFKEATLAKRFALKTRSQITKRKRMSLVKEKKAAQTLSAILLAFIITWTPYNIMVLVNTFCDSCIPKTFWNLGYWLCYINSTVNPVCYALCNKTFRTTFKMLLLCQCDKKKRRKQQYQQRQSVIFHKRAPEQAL

Turning to `N#Cc1cc(N2CCN3C(=O)[C@@H](CCCc4cccc5ncnn45)C[C@H]3C2)ccc1F` [Example 52, 5-((7S,8aS)-7-(3-([1,2,4]triazolo[1,5-a]pyridin-5-yl)propyl)-6-oxohexahydropyrrolo [1,2-a]pyrazin-2(1H)-yl)-2-fluorobenzonitrile], the 50% inhibitory concentration (IC50) in assay [1] fell in the range of 100 to 1000 nM; in assay [2] it was 100 to 1000 nM; in assay [3], 1000 to 10000 nM.

For the compound `N#Cc1ccc(N2CCN3C(=O)[C@@H](CCCc4cccc5nncn45)C[C@H]3C2)nc1` [Example 16, 6-((7S,8aS)-7-(3-([1,2,4]triazolo[4,3-a]pyridin-5-yl)propyl)-6-oxohexahydropyrrolo[1,2-a]pyrazin-2(1H)-yl)nicotinonitrile], the IC50 in assay [1], in assay [2] and in assay [3] was 100 to 1000 nM in each case.

On to `O=C1[C@H](CCCc2cccc3ncsc23)C[C@H]2CN(c3ccncc3F)CCN12` [Example 1, (7R,8aS)-7-(3-(benzo[d]thiazol-7-yl)propyl)-2-(3-fluoropyridin-4-yl)hexahydropyrrolo[1,2-a]pyrazin-6(2H)-one], for which the IC50 in assay [1], in assay [2] and in assay [3] was more than 10000 nM throughout.

`O=C1[C@@H](CCCc2cccn3ncnc23)C[C@H]2CN(c3ncc(Cl)cn3)CCN12` [Example 64, (7S,8aS)-7-(3-([1,2,4]triazolo[1,5-a]pyridin-8-yl)propyl)-2-(5-chloropyrimidin-2-yl)hexahydropyrrolo[1,2-a]pyrazin-6(2H)-one]: the IC50 was 100 to 1000 nM in assay [1], less than 100 nM in assay [2] and 1000 to 10000 nM in assay [3].

For `COc1ccc(N2CCN3C(=O)C(CCCc4cccn5ncnc45)C[C@H]3C2)nc1` (mixture of isomers) [Example 72, (7S,8aS)-7-(3-([1,2,4]triazolo[1,5-a]pyridin-8-yl)propyl)-2-(5-methoxypyridin-2-yl)hexahydropyrrolo[1,2-a]pyrazin-6(2H)-one], the IC50 in assay [1] was 1000 to 10000 nM; in assay [2] it was less than 100 nM; in assay [3], 1000 to 10000 nM.

For the compound `O=C1C(CCCc2cccc3ncsc23)C[C@H]2CN(c3ccncc3F)CCN12` (mixture of isomers) [Example 9, (8aS)-7-(3-(benzo[d]thiazol-7-yl)propyl)-2-(3-fluoropyridin-4-yl)hexahydropyrrolo[1,2-a]pyrazin-6(2H)-one], the IC50 was 1000 to 10000 nM in assay [1], 100 to 1000 nM in assay [2] and more than 10000 nM in assay [3].

For `O=C1[C@@H](CCCc2cccn3nccc23)C[C@H]2CN(c3ncc(F)cn3)CCN12` [Example 88, (7S,8aS)-2-(5-fluoropyrimidin-2-yl)-7-(3-(pyrazolo[1,5-a]pyridin-4-yl)propyl)hexahydropyrrolo[1,2-a]pyrazin-6(2H)-one], the IC50 in assay [1] is 1000 to 10000 nM; in assay [2], less than 100 nM; in assay [3], 1000 to 10000 nM.

With `O=C1[C@@H](CCCc2cccc3ncsc23)C[C@H]2CN(c3ccccn3)CCN12` [Example 27, (7S,8aS)-7-(3-(benzo[d]thiazol-7-yl)propyl)-2-(pyridin-2-yl)hexahydropyrrolo[1,2-a]pyrazin-6(2H)-one], the figures for the IC50 in assay [1], in assay [2] and in assay [3] were more than 10000 nM, 100 to 1000 nM and 1000 to 10000 nM, respectively.

Consider `O=C1[C@@H](CCCc2cccn3ncnc23)C[C@H]2CN(c3ncc(F)cn3)CCN12` [Example 63, (7S,8aS)-7-(3-([1,2,4]triazolo[1,5-a]pyridin-8-yl)propyl)-2-(5-fluoropyrimidin-2-yl)hexahydropyrrolo[1,2-a]pyrazin-6(2H)-one], for which the IC50 in assay [1] is more than 10000 nM; in assay [2], less than 100 nM; in assay [3], 1000 to 10000 nM.

As to `Cc1nc2cccc(CCC[C@H]3C[C@H]4CN(c5ccc(C#N)cn5)CCN4C3=O)c2o1` [Example 21, 6-((7S,8aS)-7-(3-(2-methylbenzo[d]oxazol-7-yl)propyl)-6-oxohexahydropyrrolo[1,2-a]pyrazin-2(1H)-yl)nicotinonitrile], the IC50 is 1000 to 10000 nM in assay [1], less than 100 nM in assay [2] and 1000 to 10000 nM in assay [3].

Take `COCc1ccc(N2CCN3C(=O)[C@@H](CCCc4cccc5ncnn45)C[C@H]3C2)nc1` [Example 49, (7S,8aS)-7-(3-([1,2,4]triazolo[1,5-a]pyridin-5-yl)propyl)-2-(5-(methoxymethyl)pyridin-2-yl)hexahydropyrrolo[1,2-a]pyrazin-6(2H)-one]: the IC50 in assay [1] was 1000 to 10000 nM; in assay [2], less than 100 nM; in assay [3], 1000 to 10000 nM.

Consider `O=C1[C@@H](CCCc2cccc3ncnn23)C[C@H]2CN(c3ccc(CO)cn3)CCN12` [Example 53, (7S,8aS)-7-(3-([1,2,4]triazolo[1,5-a]pyridin-5-yl)propyl)-2-(5-(hydroxymethyl)pyridin-2-yl)hexahydropyrrolo[1,2-a]pyrazin-6(2H)-one], for which the IC50 in assay [1] is 1000 to 10000 nM; in assay [2] it was less than 100 nM; in assay [3], more than 10000 nM.

On to `O=C1[C@@H](CCCc2cccc3ncnn23)C[C@H]2CN(c3ccc(OC(F)F)cn3)CCN12` [Example 39, (7S,8aS)-7-(3-([1,2,4]triazolo[1,5-a]pyridin-5-yl)propyl)-2-(5-(difluoromethoxy)pyridin-2-yl)hexahydropyrrolo[1,2-a]pyrazin-6(2H)-one], for which the results for the IC50 in assay [1], in assay [2] and in assay [3] were more than 10000 nM, 100 to 1000 nM and 1000 to 10000 nM, respectively.

On to `O=C1[C@@H](CCCc2cccn3ncnc23)C[C@H]2CN(c3ccc(F)cc3F)CCN12` [Example 71, (7S,8aS)-7-(3-([1,2,4]triazolo[1,5-a]pyridin-8-yl)propyl)-2-(2,4-difluorophenyl)hexahydropyrrolo[1,2-a]pyrazin-6(2H)-one], for which the IC50 was 1000 to 10000 nM in assay [1], 1000 to 10000 nM in assay [2] and more than 10000 nM in assay [3].

In the case of `O=C1[C@@H](CCCc2cccc3nccnc23)C[C@H]2CN(c3ccc(F)cn3)CCN12` [Example 93, (7S,8aS)-2-(5-fluoropyridin-2-yl)-7-(3-(quinoxalin-5-yl)propyl)hexahydropyrrolo[1,2-a]pyrazin-6(2H)-one], the IC50 in assay [1] is more than 10000 nM; in assay [2] it was less than 100 nM; in assay [3], 1000 to 10000 nM.

For the compound `Cc1ccc(N2CCN3C(=O)[C@@H](CCCc4cccc5ncnn45)C[C@H]3C2)nc1` [Example 40, (7S,8aS)-7-(3-([1,2,4]triazolo[1,5-a]pyridin-5-yl)propyl)-2-(5-methylpyridin-2-yl)hexahydropyrrolo[1,2-a]pyrazin-6(2H)-one], the results for the IC50 in assay [1], in assay [2] and in assay [3] were more than 10000 nM, less than 100 nM and more than 10000 nM, respectively.

With `N#Cc1ccc(N2CCN3C(=O)[C@@H](CCCc4cccn5ncnc45)C[C@H]3C2)cn1` [Example 67, 5-((7S,8aS)-7-(3-([1,2,4]triazolo[1,5-a]pyridin-8-yl)propyl)-6-oxohexahydropyrrolo[1,2-a]pyrazin-2(1H)-yl)picolinonitrile], the half-inhibitory concentration (IC50) in assay [1] is 100 to 1000 nM; in assay [2], less than 100 nM; in assay [3], less than 100 nM.

As for `N#Cc1ccc(N2CCN3C(=O)[C@@H](CCCc4ccc5c(c4)CCO5)C[C@H]3C2)nc1` [Example 20, 6-((7S,8aS)-7-(3-(2,3-dihydrobenzofuran-5-yl)propyl)-6-oxohexahydropyrrolo[1,2-a]pyrazin-2(1H)-yl)nicotinonitrile], the IC50 in assay [1] lay in the range of 1000 to 10000 nM; in assay [2] it was 100 to 1000 nM; in assay [3], 1000 to 10000 nM.
